Test results: ChEMBL document CHEMBL3431459, “Roche carnitine palmitoyltransferase modulator screening data (supplementary data associated with the publication CHEMBL2216752)”
≈ marks a conversion by molar mass, not a printed value.

Legend:
[1] = SUPPLEMENTARY: Lyophilisation Solubility Assay (LYSA); format: physicochemical; settings: read-out: Kinetic_solubility
[2] = biological target: T1, Carnitine O-palmitoyltransferase 2, mitochondrial (Homo sapiens, UniProt P23786); assay: (§1) SUPPLEMENTARY: Inhibition of Carnitine palmitoyltransferase 2
T1 sequence (P23786 whole entry): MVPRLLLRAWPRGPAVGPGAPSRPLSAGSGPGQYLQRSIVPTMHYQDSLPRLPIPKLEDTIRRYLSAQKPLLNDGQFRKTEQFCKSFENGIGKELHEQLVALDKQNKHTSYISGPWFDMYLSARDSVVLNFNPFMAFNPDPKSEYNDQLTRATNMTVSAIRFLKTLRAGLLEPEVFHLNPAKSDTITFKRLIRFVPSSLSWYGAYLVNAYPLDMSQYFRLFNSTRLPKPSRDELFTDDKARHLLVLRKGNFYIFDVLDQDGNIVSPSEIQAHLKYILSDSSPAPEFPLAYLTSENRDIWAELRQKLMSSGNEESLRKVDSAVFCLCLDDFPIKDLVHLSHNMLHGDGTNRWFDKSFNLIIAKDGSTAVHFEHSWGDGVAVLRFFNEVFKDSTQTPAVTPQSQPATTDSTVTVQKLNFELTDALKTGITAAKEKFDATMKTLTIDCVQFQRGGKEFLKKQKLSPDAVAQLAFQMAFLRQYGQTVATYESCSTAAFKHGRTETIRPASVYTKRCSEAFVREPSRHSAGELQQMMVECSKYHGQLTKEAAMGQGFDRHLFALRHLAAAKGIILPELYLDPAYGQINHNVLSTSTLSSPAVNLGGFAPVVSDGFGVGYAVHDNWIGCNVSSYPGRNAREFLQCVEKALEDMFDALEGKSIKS

[3] = biological target: T2, Carnitine O-palmitoyltransferase 2, mitochondrial (Rattus norvegicus, UniProt P18886); assay: as §1
T2 sequence (P18886 whole entry): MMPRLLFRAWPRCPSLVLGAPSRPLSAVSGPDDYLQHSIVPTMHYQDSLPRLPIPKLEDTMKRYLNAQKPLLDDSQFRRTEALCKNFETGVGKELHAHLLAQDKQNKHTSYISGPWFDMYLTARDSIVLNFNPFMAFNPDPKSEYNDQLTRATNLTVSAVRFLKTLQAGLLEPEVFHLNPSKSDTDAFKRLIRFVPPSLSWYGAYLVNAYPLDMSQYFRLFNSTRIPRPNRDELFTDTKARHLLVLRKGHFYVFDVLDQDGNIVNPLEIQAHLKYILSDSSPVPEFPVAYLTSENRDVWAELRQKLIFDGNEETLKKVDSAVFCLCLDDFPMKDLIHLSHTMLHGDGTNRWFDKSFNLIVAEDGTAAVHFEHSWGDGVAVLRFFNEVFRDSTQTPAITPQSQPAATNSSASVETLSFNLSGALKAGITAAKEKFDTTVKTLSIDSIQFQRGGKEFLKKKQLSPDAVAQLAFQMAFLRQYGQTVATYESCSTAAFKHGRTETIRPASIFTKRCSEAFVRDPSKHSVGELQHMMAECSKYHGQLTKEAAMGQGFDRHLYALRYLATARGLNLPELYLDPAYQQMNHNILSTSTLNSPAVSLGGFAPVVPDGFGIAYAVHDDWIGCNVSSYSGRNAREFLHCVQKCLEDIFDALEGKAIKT

[4] = SUPPLEMENTARY: Lipophilicity (log D) Determination by high-throughput shake-flask; format: physicochemical; settings: octanol/water
[5] = biological target: T3, Carnitine O-palmitoyltransferase 1, liver isoform (Rattus norvegicus, UniProt P32198); assay: (§2) SUPPLEMENTARY: Inhibition of Carnitine palmitoyltransferase 1, liver isoform
T3 sequence (P32198 whole entry): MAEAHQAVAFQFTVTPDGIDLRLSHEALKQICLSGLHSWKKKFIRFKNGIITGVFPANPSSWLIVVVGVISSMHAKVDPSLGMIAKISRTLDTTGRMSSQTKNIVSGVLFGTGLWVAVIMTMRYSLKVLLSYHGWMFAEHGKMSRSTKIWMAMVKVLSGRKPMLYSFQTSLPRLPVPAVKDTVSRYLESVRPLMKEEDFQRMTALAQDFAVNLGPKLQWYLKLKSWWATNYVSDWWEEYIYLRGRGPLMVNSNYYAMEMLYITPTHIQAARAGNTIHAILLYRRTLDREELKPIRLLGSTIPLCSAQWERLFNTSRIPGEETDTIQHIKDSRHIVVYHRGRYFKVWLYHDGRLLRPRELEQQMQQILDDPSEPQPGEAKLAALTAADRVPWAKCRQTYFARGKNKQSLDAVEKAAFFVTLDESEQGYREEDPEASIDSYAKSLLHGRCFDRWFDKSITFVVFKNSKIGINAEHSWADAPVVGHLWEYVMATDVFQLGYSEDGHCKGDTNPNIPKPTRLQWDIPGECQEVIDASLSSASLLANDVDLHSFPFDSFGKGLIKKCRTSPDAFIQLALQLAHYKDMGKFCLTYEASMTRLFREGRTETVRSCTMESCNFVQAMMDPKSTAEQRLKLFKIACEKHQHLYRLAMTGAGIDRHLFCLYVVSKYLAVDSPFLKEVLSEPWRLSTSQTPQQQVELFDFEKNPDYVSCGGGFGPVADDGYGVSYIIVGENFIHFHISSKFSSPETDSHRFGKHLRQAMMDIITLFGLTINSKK

[6] = biological target: T4, Carnitine O-palmitoyltransferase 1, liver isoform (Homo sapiens, UniProt P50416); assay: as §2
T4 sequence (P50416 whole entry): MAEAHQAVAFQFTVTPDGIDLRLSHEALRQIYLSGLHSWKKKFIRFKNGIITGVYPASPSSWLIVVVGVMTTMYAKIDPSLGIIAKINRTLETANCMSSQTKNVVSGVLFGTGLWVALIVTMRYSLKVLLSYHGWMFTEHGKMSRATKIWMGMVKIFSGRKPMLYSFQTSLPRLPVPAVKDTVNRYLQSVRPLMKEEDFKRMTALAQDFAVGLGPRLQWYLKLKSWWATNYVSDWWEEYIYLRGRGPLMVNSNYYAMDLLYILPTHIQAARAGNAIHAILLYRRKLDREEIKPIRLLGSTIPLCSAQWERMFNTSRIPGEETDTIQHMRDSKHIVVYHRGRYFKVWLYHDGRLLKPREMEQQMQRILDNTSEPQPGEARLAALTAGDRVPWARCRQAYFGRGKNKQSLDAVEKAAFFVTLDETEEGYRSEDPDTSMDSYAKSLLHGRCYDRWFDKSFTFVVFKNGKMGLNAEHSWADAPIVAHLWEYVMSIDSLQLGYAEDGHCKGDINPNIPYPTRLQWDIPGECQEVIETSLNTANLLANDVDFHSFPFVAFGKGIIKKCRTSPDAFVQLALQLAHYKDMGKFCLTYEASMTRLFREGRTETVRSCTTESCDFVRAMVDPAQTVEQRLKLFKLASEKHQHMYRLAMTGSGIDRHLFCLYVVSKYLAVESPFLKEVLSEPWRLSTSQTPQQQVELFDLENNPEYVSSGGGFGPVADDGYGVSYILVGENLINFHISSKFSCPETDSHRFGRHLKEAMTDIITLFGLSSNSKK

[7] = SUPPLEMENTARY: PAMPA permeability assay; format: physicochemical; settings: read-out: Permeability
[8] = biological target: T5, Carnitine O-palmitoyltransferase 1, muscle isoform (Homo sapiens, UniProt Q92523); assay: SUPPLEMENTARY: Inhibition of Carnitine palmitoyltransferase 1, muscle isoform; parameters: species or system Muscle tissue
T5 sequence (Q92523 whole entry): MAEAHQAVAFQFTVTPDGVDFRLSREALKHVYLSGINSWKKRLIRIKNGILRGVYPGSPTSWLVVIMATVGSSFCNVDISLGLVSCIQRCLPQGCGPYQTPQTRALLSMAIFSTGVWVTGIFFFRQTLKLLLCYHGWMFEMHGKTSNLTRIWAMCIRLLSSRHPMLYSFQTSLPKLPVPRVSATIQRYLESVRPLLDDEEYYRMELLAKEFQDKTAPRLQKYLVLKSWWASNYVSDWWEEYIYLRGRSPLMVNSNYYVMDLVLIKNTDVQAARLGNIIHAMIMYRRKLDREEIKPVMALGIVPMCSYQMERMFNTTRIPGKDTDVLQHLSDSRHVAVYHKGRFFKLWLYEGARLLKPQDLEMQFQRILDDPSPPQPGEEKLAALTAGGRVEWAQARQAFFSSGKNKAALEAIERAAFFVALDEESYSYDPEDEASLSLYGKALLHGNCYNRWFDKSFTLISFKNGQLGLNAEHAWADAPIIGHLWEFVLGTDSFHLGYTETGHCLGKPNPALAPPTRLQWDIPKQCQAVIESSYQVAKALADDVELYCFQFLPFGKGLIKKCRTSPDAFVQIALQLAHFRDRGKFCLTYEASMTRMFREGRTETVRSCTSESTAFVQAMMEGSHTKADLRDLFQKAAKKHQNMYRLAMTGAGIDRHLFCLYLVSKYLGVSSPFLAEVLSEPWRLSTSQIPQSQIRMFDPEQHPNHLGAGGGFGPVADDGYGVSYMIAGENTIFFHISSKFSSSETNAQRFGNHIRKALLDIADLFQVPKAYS

Row | Structure (SMILES) | solubility kinetic [1] [µg/mL] | IC50 [2] [nM] | IC50 [3] [nM] | logD [4] | IC50 [5] [nM] | IC50 [6] [nM] | Papp [7] [×10⁻⁶ cm/s] | IC50 [8] [nM]
1 | NC(=O)c1ccc(C#C[C@H]2CCCCN2C(=O)COc2ccccc2)cc1 | 18 (≈ 49.7 µM) | 42100 | > 100000 | 2.85 | 169 | 75.8 | 2.96 | 9880
2 | O=C1CCCN1c1cccc(-c2nc([C@H]3CCCCN3C(=O)COc3ccccc3)no2)c1 | 9 (≈ 20.2 µM) | 38400 | > 100000 | 3.07 | 165 | 142 | 2.33 | > 100000
3 | NC(=O)c1cncc(-c2noc([C@H]3CCCCN3C(=O)COc3ccccc3)n2)c1 | 141 (≈ 346 µM) | 24300 | 86300 | 1.88 | 410 | 113 | 3.83 | > 100000
4 | CC(=O)Nc1cc(F)cc(-c2n[nH]c([C@H]3CCCCN3C(=O)COc3ccccc3)n2)c1 | 37 (≈ 84.6 µM) | > 100000 | > 100000 | 3.22 | 65.6 | 26.4 | 1.69 | > 100000
5 | COc1ccc(Cl)cc1Cc1cn(C)c2ccc(C(=O)Nc3nc(CC(=O)O)cs3)cc12 | 19 (≈ 40.4 µM) | > 100000 | > 100000 | 2.39 | 54.8 | 40.6 | 0.51 | 2410
6 | CN1CCN(C(=O)COc2ccccc2)[C@@H](c2nc(-c3cccc(C(F)(F)F)c3)n[nH]2)C1 | 81 (≈ 182 µM) | 94600 | > 100000 | 3.19 | 54.7 | 37 | 2.31 | > 100000
7 | N#Cc1ccc(-c2nc([C@H]3CCCCN3C(=O)COc3ccccc3)no2)cc1 | 6 (≈ 15.4 µM) | 22000 | > 100000 | 3.16 | 143 | 80.7 | 5.52 | > 100000
8 | CC(=O)Nc1ccc(-c2noc([C@H]3CCCCN3C(=O)C#Cc3ccccc3)n2)cc1C(F)(F)F | 1 (≈ 2.07 µM) | > 100000 | > 100000 | > 3 | 7980 | 260 | 1.5 | > 100000
9 | O=C([C@H]1CCCCN1C(=O)COc1ccccc1)N1Cc2cc(Cl)c(N3CCOCC3)cc2C1 | 36 (≈ 74.4 µM) | 388 | 496 | 3.24 | 121 | 145 | 5.91 | > 100000
10 | COc1ccc(Cl)cc1S(=O)(=O)n1ccc2ccc(C(=O)Nc3ccc(CC(=O)O)cc3)cc21 | 61 (≈ 122 µM) | > 100000 | > 100000 | 1.1 | 82.8 | 206 | 1.98 | 2210
11 | O=C(COc1ccccc1)N1CCCC[C@@H]1c1nc(-c2cccc(F)c2)n[nH]1 | 23 (≈ 60.5 µM) | > 100000 | > 100000 | 3.5 | 250 | 82.7 | 1.45 | > 100000
